Source: patent US20220395500A1, “SMALL MOLECULE ACTIVATORS OF INTERFERON REGULATORY FACTOR 3 AND METHODS OF USE THEREOF” (Neuralexo, Inc., priority 2020, published 2022)
Read-outs that look alike come from different tables or passages of the source.

Columns and labels:
[1] = THP1-Dual cytotoxicity (Cell Titer Glo, ATP); assay type: cell-based, human; settings: human, THP1-Dual cells, read-out: Thp1 cytotox CC50
Excerpt: FIG. 9C is a CC50 (50% cytotoxic concentration) graph of AV-C dependent IRF activation in THP1-Dual cells, determined with an 8-point dose response experiment. Cell viability was monitored based on quantitation of ATP present, as an indicator of metabolically active cells, where luminescence is proportional to the amount of ATP present, using Cell-Titer Glo (Promega).
The OTRADI Small Molecule Library of approximately 246,000 diverse compounds (see below for description) was screened using the THP1-Dual based HTS platform described above. All transfer steps in the screen are fully automated, thus reducing variability. Primary screening included a single data point or dose for each molecule. After data normalization was applied for each assay run, “hit” selection was performed on the plates that pass the quality control (QC) criterion. Hits were defined as samples having values above the activity cutoff determined based on noise level of the assay to reduce false positive rates. In the pilot study discussed above this activity value was >3σ above the ISRE mean with the added criteria of NFκB activation being lower than […] from the mean to identify IRF selective compounds. The ratio of ISRE:NFκB activity was also calculated as a selectivity index for prioritizing hit selection. Primary hits underwent secondary screening to determine the 50% effective concentration (EC50) and 50% cytotoxic concentration (CC50) of these agents using an 8-point dose-response curve in the human THP1-Dual cells. Cytotoxicity was measured in the plate using Cell Titer Glo (Promega). Identified candidate compounds were further screened (orthogonal screen) for cross species activity in the validated mouse J774-Dual assay using an 8-point dose-response format to determine EC50 and CC50 values as well as ISRE:NFκB ratios. A general process flow for the experimental design laid out above is depicted at FIG. 12.

J774-Dual cytotoxicity = assay type: cell-based, mouse; settings: mouse, J774-Dual cells, read-out: J774 cytotox CC50
Experimental: The OTRADI Small Molecule Library of approximately 246,000 diverse compounds (see below for description) was screened using the THP1-Dual based HTS platform described above. All transfer steps in the screen are fully automated, thus reducing variability. Primary screening included a single data point or dose for each molecule. After data normalization was applied for each assay run, “hit” selection was performed on the plates that pass the quality control (QC) criterion. Hits were defined as samples having values above the activity cutoff determined based on noise level of the assay to reduce false positive rates. […] The ratio of ISRE:NFκB activity was also calculated as a selectivity index for prioritizing hit selection. Primary hits underwent secondary screening to determine the 50% effective concentration (EC50) and 50% cytotoxic concentration (CC50) of these agents using an 8-point dose-response curve in the human THP1-Dual cells. Cytotoxicity was measured in the plate using Cell Titer Glo (Promega). Identified candidate compounds were further screened (orthogonal screen) for cross species activity in the validated mouse J774-Dual assay using an 8-point dose-response format to determine EC50 and CC50 values as well as ISRE:NFκB ratios. A general process flow for the experimental design laid out above is depicted at FIG. 12.

[2] = tested on: IRF-Lucia luciferase reporter (ISRE) in THP1-Dual cells; test: THP1-Dual IRF-Lucia luciferase reporter assay (ISRE activation); assay type: cell-based, human; settings: for EC50: Homo sapiens, THP1-Dual, read-out: THP1 IRF EC50; for Average ISRE/NFκB (Range) / Average ISRE % Activation: human THP1 pilot screen, 10 μM, 3 screens; for Average ISRE % Activation: 24 hours, percent of LPS activation signal +/− SD
Experimental: THP1 Dual (InvivoGen) cell suspensions were cultured in RPMI 1640 (Hyclone, Logan, Utah) supplemented with 10% fetal bovine serum (Hyclone), 100 U/mL Normocin (Invivogen), and 50 U/mL PenStrep (Gibco, Dublin, Ireland) between a density of 7·10^5-2·10^6 cells/mL. Every other passage, media was supplemented with 5 U/mL Blasticidin and 100 U/mL Zeocin to maintain the expression constructs. White, flat-bottom 384-well plates (Greiner, Kremsmunster, Austria, 781080) were seeded with 2.5·10^4 cells/well in a total of 50 μL media containing 5 ng/mL phorbolmyristic acid (PMA) using a Matrix WellMate (Thermo Scientific) dispenser. After 48 hours of incubation at 37° C., media was removed using a BioTek ELx405 CW plate washer set to aspirate and wash each well three times with 65 μL 1×PBS. Plates were reloaded with 50 μL media without PMA and treatments added. Lipopolysaccharide in dimethylsulfoxide (DMSO) was transferred to control wells using a HP D300 microdispenser to a final concentration of 313 ng/mL. Compounds from chemical library plates were copied using a Sciclone (Caliper LifeSciences) mounted with a 384-pin transfer tool to obtain a final concentration of 10 μM. After incubation with treatments for 24 hours, 10 μL of supernatant media from each well was transferred into a white, flat-bottom 384-well plate for luminescence readout and a black-walled, clear flat-bottom 384-well plate for absorbance readout.
Specifically, to enable screening of novel chemical entities (NCEs) in a larger screening effort, a robust high-throughput cell-based assay system for primary hit identification of ISRE activators based on the above-mentioned target validation was desired. Human ISRE activity was verified using a THP-1 monocyte line containing the NF-κB-SEAP and IRF-Lucia luciferase dual reporter (THP1-Dual; Invivogen) that features two reporter genes, SEAP (secreted embryonic alkaline phosphatase) and Lucia luciferase, thereby enabling the simultaneous study of the NF-κB and IRF signalling pathways. The Lucia luciferase reporter is under the control of an ISG54 (interferon-stimulated gene) minimal promoter in conjunction with five IFN-stimulated response elements. The SEAP gene is driven by an IFN-β minimal promoter fused to five copies of the NF-κB consensus transcriptional response element and three copies of the c-Rel binding site. Both reporter proteins are readily measurable in the cell culture supernatant when using QUANTI-LUC™ and QUANTI-Blue SEAP detection reagents.
The responsiveness of the human THP-1 Dual cell line was evaluated in an array of assay conditions to obtain sensitive and reproducible results for the activation of IRF and NF-κB reporters. […] All transfer steps are fully automated using high throughput robotic equipment. Briefly, cells are seeded in differentiation medium using a Matrix WellMate fitted with the WellMate Stacker (Thermo Scientific) and incubated at 37° C. with 5% CO2 for 48 h. Following differentiation, cells are washed using a BioTek ELx405 Select CW plate washer and growth medium added with the Matrix WellMate. Programmed control treatments are added to wells using a D300 digital dispenser fitted with T8+ dispense heads (Hewlett Packard) designed to dispense nanoliter quantities of material. Compounds from library plates are added using a pin tool fitted to a Sciclone ALH 3000 Workstation (Caliper Life Sciences) programmed with Maestro v4.4. After treatment, plates are returned to incubators for 24 hours. To measure reporter expression, supernatant is collected using the Sciclone and dispensed into 2 plates: 1) a white 384-well assay plate for Lucia luminescence measurements and 2) a clear-bottom black 384-well assay plate for SEAP absorbance measurements.

[3] = Human Reporter Cell Line, 8-point dose response

EC50 ([2]; Human Reporter Cell Line THP1)	Molecule	CC50 ([1]; Human Reporter Cell Line THP1)	CC50 (J774-Dual cytotoxicity; Mouse Reporter Cell Line J774)	also measured
2.95 µM	COc1ccc(C(=O)Nc2cc(-c3nc4cc(C)cc(C)c4o3)ccc2C)cc1[N+](=O)[O-] [ND-8]	> 25 µM	> 25 µM	
~5.87 µM	COc1ccc(-c2nc3cc(C(C)C)ccc3o2)cc1NC(=O)c1cc(C)cc(C)c1 [ND-91]	> 25 µM	> 25 µM	
2.49 µM	COc1ccc2nc(NC(=O)c3ccc(OC)c([N+](=O)[O-])c3)sc2c1 [ND-39]	> 25 µM	> 25 µM	
	O=C(Nc1ccc(N2CCN(C(=O)c3ccccc3)CC2)cc1)c1ccc(OCc2ccccc2)cc1 [NA-51]			CC50 ([1]; Human Reporter Cell Line): 11.3 µM; CC50 (J774-Dual cytotoxicity; Mouse Reporter Cell Line): > 25 µM; EC50 [2, 3]: ~2.63 µM
	Methapyrilene Hydrochloride [reference compound]			Average ISRE/NFκB (Range) [2]: 1.4 (0.4-2.3)
2.8 µM	O=C(Nc1nc2ccc3scnc3c2s1)c1ccc2ccccc2c1 [ND-58]	> 25 µM	> 25 µM	
3.03 µM	COc1cc2nc(-c3ccccc3)nc(N3CCN(CCN4CCCC4)CC3)c2cc1OC [ND-98]	18.1 µM	19.3 µM	
7.27 µM	Cc1ccc(-c2nc3ccccc3s2)cc1NC(=O)c1ccc(Cl)c([N+](=O)[O-])c1 [ND-64]	> 25 µM	> 25 µM	
	O=C(Nc1ccc(N2CCN(C(=O)c3cccs3)CC2)cc1)c1ccc2cc(Br)ccc2c1 [NA-17]			CC50 ([1]; Human Reporter Cell Line): 14.6 µM; CC50 (J774-Dual cytotoxicity; Mouse Reporter Cell Line): > 25 µM; EC50 [2, 3]: 2.4 µM
	O=C(Nc1ccc(N2CCN(C(=O)c3ccccc3)CC2)cc1)c1ccc(-c2cccnc2)cc1 [NA-53]			CC50 ([1]; Human Reporter Cell Line): 12.3 µM; CC50 (J774-Dual cytotoxicity; Mouse Reporter Cell Line): 29.2 µM; EC50 [2, 3]: ~1.48 µM
4.68 µM	COc1ccc(C(=O)Nc2nc(-c3cc4ccccc4oc3=O)cs2)nc1 [ND-27]	> 25 µM	> 25 µM	
	COC1=CC(=O)C(O)=C/C1=C\C=C\c1ccccc1 [OTR-0001624-001 (Obtusaquinone), Obtusaquinone, reference compound]			Average ISRE/NFκB (Range) [2]: 0.2 (0.2-0.3); Average ISRE % Activation [2]: 1.7 +/− 0.6%
~5.39 µM	COc1c(Cl)cc(C(=O)Nc2cc(-c3nc4cc(C)c(C)cc4o3)ccc2C)cc1Cl [ND-69]	> 25 µM	> 25 µM	
5.1 µM	COc1ccc(C(=O)Nc2ccc3oc(-c4cccnc4)nc3c2)cc1[N+](=O)[O-] [ND-43]	20.3 µM	> 25 µM	
~19.6 µM	COc1ccc2oc(-c3ccc(C)c([N+](=O)[O-])c3)nc2c1 [ND-84]	> 25 µM	> 25 µM	
15.2 µM	Cc1ccc(-c2nc3ccccc3o2)cc1NC(=O)c1ccc(C)c([N+](=O)[O-])c1 [ND-30]	> 25 µM	> 25 µM	
3.13 µM	Cc1ccc(C(=O)Nc2ccc3oc(-c4cccnc4)nc3c2)c(Cl)c1 [ND-4]	49.3 µM	> 25 µM	

EC50 ([2]; Human Reporter Cell Line THP1)	Molecule	CC50 ([1]; Human Reporter Cell Line THP1)	CC50 (J774-Dual cytotoxicity; Mouse Reporter Cell Line J774)	also measured
	Cc1ccccc1C(=O)N1CCN(c2ccc(NC(=O)c3ccc(OCc4ccccc4)cc3)cc2)CC1 [NA-52]			CC50 ([1]; Human Reporter Cell Line): > 25 µM; CC50 (J774-Dual cytotoxicity; Mouse Reporter Cell Line): > 25 µM; EC50 [2, 3]: 1.42 µM
~3.3 µM	COc1ccc(C(=O)Nc2nc(-c3cc4ccccc4oc3=O)cs2)cn1 [ND-28]	> 25 µM	> 25 µM	
3.22 µM	COc1ccc(C(=O)Nc2cccc(-c3nc4cc(C)c(C)cc4o3)c2)cc1[N+](=O)[O-] [ND-46]	13.1 µM	27.9 µM	
~0.716 µM	Cc1cccc([C@H](C)c2cnc[nH]2)c1C [ND-76]	> 25 µM	> 25 µM	
2.13 µM	COc1ccc2oc(-c3ccc(C)c(NC(=O)c4ccc(N5CCOCC5)c([N+](=O)[O-])c4)c3)nc2c1 [ND-35]	35.7 µM	> 25 µM	
	O=C(Nc1ccc(N2CCN(C(=O)c3cccs3)CC2)cc1)c1cc(Cl)ccc1Cl [NA-43]			CC50 ([1]; Human Reporter Cell Line): > 25 µM; CC50 (J774-Dual cytotoxicity; Mouse Reporter Cell Line): > 25 µM; EC50 [2, 3]: ~10.8 µM
	CCN(CC)CCCC(C)Nc1c2ccc(Cl)cc2nc2ccc(OC)cc12.Cl.Cl (centres unmarked) [Quinacrine Hydrochloride, reference compound]			Average ISRE/NFκB (Range) [2]: 1.4 (1.0-2.0); Average ISRE % Activation [2]: 5.7 +/− 2.9%
	O=C(Nc1ccc(N2CCN(C(=O)c3cccs3)CC2)cc1)c1ccc(OCc2cccnc2)cc1 [NA-61]			EC50 [2, 3]: 2.27 µM
3.83 µM	O=C(Nc1nc(-c2cc3ccccc3oc2=O)cs1)c1ccc(OCc2ccccc2)cc1 [ND-22]	9.79 µM		
	Cc1ccc(C(=O)Nc2cc(C(C)C)ccc2O)cc1[N+](=O)[O-] [ND-55]	> 25 µM	> 25 µM	
	CC(C)CC(=O)c1c(C(C)C)nn2ccccc12 [ND-97]	> 25 µM	> 25 µM	
	Cc1cc2nc(-c3ccc(C)c(NC(=O)c4cc([N+](=O)[O-])ccc4Cl)c3)oc2cc1C [ND-33]	> 25 µM	> 25 µM	
	CN(C)CCCOc1ccc(-c2nc3cc(OCCCN4CCCC4)ccc3o2)cc1 [ND-93]	> 25 µM	> 25 µM	
	O=C(Nc1ccc(N2CCN(C(=O)c3cccnc3)CC2)cc1)c1ccc(OCc2ccccc2)cc1 [NA-36]			CC50 ([1]; Human Reporter Cell Line): > 25 µM; CC50 (J774-Dual cytotoxicity; Mouse Reporter Cell Line): > 25 µM
	O=C(Nc1ccc(-c2ccccc2)cc1)Nc1ccc(N2CCN(C(=O)c3cccs3)CC2)cc1 [NA-72]			CC50 ([1]; Human Reporter Cell Line): > 10 µM; CC50 (J774-Dual cytotoxicity; Mouse Reporter Cell Line): > 10 µM
13.5 µM	COc1ccc(C(=O)Nc2nc(-c3cc4ccccc4oc3=O)co2)c2ccccc12 [ND-18]			
	O=C(c1cccs1)N1CCN(c2ccc(NS(=O)(=O)c3ccc(-c4ccccc4)cc3)cc2)CC1 [NA-69]			CC50 ([1]; Human Reporter Cell Line): > 10 µM; CC50 (J774-Dual cytotoxicity; Mouse Reporter Cell Line): > 10 µM
